# What was measured:
# [1] = molecular target: T1, human TGR5 (h-TGR5) (Homo sapiens, UniProt Q8TDU6); experiment: TGR5/CRE-Luciferiase Assay (HEK 293 hTGR5/CRE-Luc cells); assay type: cell-based; details: h-TGR5 CRE-Luc EC50, Table 1; read-out: CRE-Luc (EC50)
# T1 construct: expressed in transfected cells
# T1 sequence (Q8TDU6 1-330): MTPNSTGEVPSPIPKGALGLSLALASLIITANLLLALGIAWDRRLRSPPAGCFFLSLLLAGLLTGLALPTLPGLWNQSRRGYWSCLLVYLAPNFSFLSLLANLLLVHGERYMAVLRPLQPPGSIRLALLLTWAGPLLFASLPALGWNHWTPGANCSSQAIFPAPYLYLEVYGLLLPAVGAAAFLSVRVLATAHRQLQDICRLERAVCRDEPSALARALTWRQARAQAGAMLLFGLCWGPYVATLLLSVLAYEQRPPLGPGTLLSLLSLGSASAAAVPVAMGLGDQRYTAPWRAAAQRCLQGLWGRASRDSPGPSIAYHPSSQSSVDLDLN
# In short: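 HEK293 cells stably carrying hTGR5 and a CRE-luciferase reporter were exposed to serially diluted compounds (diluted in DMEM with 5% DMSO) for 6 h. Cells were then lysed in luciferase buffer, luminescence was read, and EC50 values were derived from dose-response curves.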
# [2] = molecular target: T2, h-TGR5 (Homo sapiens, UniProt Q8TDU6); experiment: TGR5 cAMP Assay using Cisbio cAMP Dynamic2 htrf kit (hTGR5CRE-luc HEK 293 cells); assay type: cell-based; details: h-TGR5 cAMP EC50, Table 1; read-out: cAMP (EC50)
# T2 construct: expressed in transfected cells
# T2 sequence (Q8TDU6 1-330): T1 sequence (Q8TDU6 1-330)
# In short: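 […], 4000 hTGR5CRE-luc HEK 293 cells per well, with 0.5 mM IBMX and d2-cAMP, were incubated 30 min at room temperature with compounds in 8-point half-log series, in quadruplicate.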
Structure (SMILES),EC50 [1],EC50 [2]
COc1cc(C(C)(C)c2cnc(SCc3ccc(C(=O)NCCS(=O)(=O)O)cc3F)n2-c2ccc(F)cc2)ccc1Cl [2-({[4-({[5-{1-[4-chloro-3-(methyloxy)phenyl]-1-methylethyl}-1-(4-fluorophenyl)-1H-imidazol-2-yl]thio}methyl)-3-fluorophenyl]carbonyl}amino)ethanesulfonic acid],< 100 nM,< 100 nM
"CC(C)(c1ccc(Cl)c(Cl)c1)c1cnc(CCc2c(F)cccc2Cl)n1-c1ccc(F)cc1 [2-[2-(2-chloro-6-fluorophenyl)ethyl]-5-[1-(3,4-dichlorophenyl)-1-methylethyl]-1-(4-fluorophenyl)-1H-imidazole]",100 to 1000 nM,100 to 1000 nM
COc1cc(C(C)(C)c2cnc(SCc3c(F)cc(C(C)(C)O)cc3Cl)n2-c2ccc(F)cc2)ccc1Cl [2-[3-chloro-4-({[5-{1-[4-chloro-3-(methyloxy)phenyl]-1-methylethyl}-1-(4-fluorophenyl)-1H-imidazol-2-yl]thio}methyl)-5-fluorophenyl]propan-2-ol],< 100 nM,< 100 nM
"CC(C)(c1ccc(Cl)c(Cl)c1)c1cnc(SCc2c(F)cc(C(=O)NCCS(=O)(=O)O)cc2F)n1-c1ccc(F)c(Cl)c1 [2-[({4-[({1-(3-chloro-4-fluorophenyl)-5-[1-(3,4-dichlorophenyl)-1-methylethyl]-1H-imidazol-2-yl}thio)methyl]-3,5-difluorophenyl}carbonyl)amino]ethanesulfonic acid]",< 100 nM,< 100 nM
"CC(C)(c1ccc(Cl)c(Cl)c1)c1cnc(SCc2ccc(C(=O)NCCS(=O)(=O)O)cc2F)n1-c1ccc(F)cc1 [2-[({4-[({5-[1-(3,4-dichlorophenyl)-1-methylethyl]-1-(4-fluorophenyl)-1H-imidazol-2-yl}thio)methyl]-3-fluorophenyl}carbonyl)amino]ethanesulfonic acid-sodium (1:1)]",100 to 1000 nM,< 100 nM
"COc1cc(-n2c(C(C)(C)c3ccc(Cl)c(Cl)c3)cnc2SCc2c(F)cc(C(=O)NCCS(=O)(=O)O)cc2F)ccc1F [2-[({4-[({5-[1-(3,4-dichlorophenyl)-1-methylethyl]-1-[4-fluoro-3-(methyloxy)phenyl]-1H-imidazol-2-yl}thio)methyl]-3,5-difluorophenyl}carbonyl)amino]ethanesulfonic acid]",< 100 nM,< 100 nM
COc1cc(-n2c(C(C)(C)c3ccc(S(N)(=O)=O)c(Cl)c3)cnc2SCc2ccc(Cl)c(-c3nnn[nH]3)c2)ccc1F [2-chloro-4-(1-{2-({[4-chloro-3-(1H-tetrazol-5-yl)phenyl]methyl}thio)-1-[4-fluoro-3-(methyloxy)phenyl]-1H-imidazol-5-yl}-1-methylethyl)benzenesulfonamide],100 to 1000 nM,100 to 1000 nM
"CC(C)(c1ccc(Cl)c(Cl)c1)c1cnc(SCc2ccc(C(=O)O)c(Cl)c2)n1-c1ccc(F)cc1 [2-chloro-4-[({5-[1-(3,4-dichlorophenyl)-1-methylethyl]-1-(4-fluorophenyl)-1H-imidazol-2-yl}thio)methyl]benzoic acid]",100 to 1000 nM,100 to 1000 nM
"CC(C)(c1ccc(S(N)(=O)=O)c(Cl)c1)c1cnc(SCc2ccc(Cl)c(-c3nnn[nH]3)c2)n1-c1ccc(F)c(F)c1 [2-chloro-4-{1-[2-({[4-chloro-3-(1H-tetrazol-5-yl)phenyl]methyl}thio)-1-(3,4-difluorophenyl)-1H-imidazol-5-yl]-1-methylethyl}benzenesulfonamide]",100 to 1000 nM,100 to 1000 nM
CC(C)(c1ccc(S(N)(=O)=O)c(Cl)c1)c1cnc(SCc2ccc(Cl)c(-c3nnn[nH]3)c2)n1-c1ccc(F)cc1 [2-chloro-4-{1-[2-({[4-chloro-3-(1H-tetrazol-5-yl)phenyl]methyl}thio)-1-(4-fluorophenyl)-1H-imidazol-5-yl]-1-methylethyl}benzenesulfonamide],100 to 1000 nM,100 to 1000 nM
CC(C)(c1ccc(C(N)=O)c(Cl)c1)c1cnc(SCc2ccc(F)cc2Cl)n1-c1ccc(F)cc1 [2-chloro-4-{1-[2-{[(2-chloro-4-fluorophenyl)methyl]thio}-1-(4-fluorophenyl)-1H-imidazol-5-yl]-1-methylethyl}benzamide],100 to 1000 nM,< 100 nM
CC(C)(c1ccc(S(N)(=O)=O)c(Cl)c1)c1cnc(SCc2ccc(F)cc2Cl)n1-c1ccc(F)cc1 [2-chloro-4-{1-[2-{[(2-chloro-4-fluorophenyl)methyl]thio}-1-(4-fluorophenyl)-1H-imidazol-5-yl]-1-methylethyl}benzenesulfonamide],< 100 nM,100 to 1000 nM
CC(C)(c1ccc(C#N)c(Cl)c1)c1cnc(SCc2ccc(F)cc2Cl)n1-c1ccc(F)cc1 [2-chloro-4-{1-[2-{[(2-chloro-4-fluorophenyl)methyl]thio}-1-(4-fluorophenyl)-1H-imidazol-5-yl]-1-methylethyl}benzonitrile],100 to 1000 nM,100 to 1000 nM
COc1ccc(C(C)(C)c2cnc(SCc3ccc(Cl)c(C(=O)O)c3)n2-c2ccc(F)cc2)cc1Cl [2-chloro-5-({[5-{1-[3-chloro-4-(methyloxy)phenyl]-1-methylethyl}-1-(4-fluorophenyl)-1H-imidazol-2-yl]thio}methyl)benzoic acid],100 to 1000 nM,100 to 1000 nM
COc1cc(C(C)(C)c2cnc(SCc3cc(S(N)(=O)=O)c(Cl)cc3F)n2-c2ccc(F)cc2)ccc1Cl [2-chloro-5-({[5-{1-[4-chloro-3-(methyloxy)phenyl]-1-methylethyl}-1-(4-fluorophenyl)-1H-imidazol-2-yl]thio}methyl)-4-fluorobenzenesulfonamide],< 100 nM,< 100 nM
"CC(C)NC(=O)NS(=O)(=O)c1cc(CSc2ncc(C(C)(C)c3ccc(Cl)c(Cl)c3)n2-c2ccc(F)cc2)ccc1Cl [2-chloro-5-[({5-[1-(3,4-dichlorophenyl)-1-methylethyl]-1-(4-fluorophenyl)-1H-imidazol-2-yl}thio)methyl]-N-{[(1-methylethyl)amino]carbonyl}benzenesulfonamide]",100 to 1000 nM,100 to 1000 nM
"CC(C)(c1ccc(Cl)c(Cl)c1)c1cnc(SCc2ccc(Cl)c(S(N)(=O)=O)c2)n1-c1ccc(F)cc1 [2-chloro-5-[({5-[1-(3,4-dichlorophenyl)-1-methylethyl]-1-(4-fluorophenyl)-1H-imidazol-2-yl}thio)methyl]benzenesulfonamide]",< 100 nM,< 100 nM
"COc1cc(-n2c(C(C)(C)c3ccc(Cl)c(Cl)c3)cnc2SCc2ccc(F)cc2Cl)ccc1F [2-{[(2-chloro-4-fluorophenyl)methyl]thio}-5-[1-(3,4-dichlorophenyl)-1-methylethyl]-1-[4-fluoro-3-(methyloxy)phenyl]-1H-imidazole]",100 to 1000 nM,100 to 1000 nM
COc1cc(C(C)(C)c2cnc(SCc3ccc(F)cc3Cl)n2-c2ccc(F)cc2)ccc1Cl [2-{[(2-chloro-4-fluorophenyl)methyl]thio}-5-{1-[4-chloro-3-(methyloxy)phenyl]-1-methylethyl}-1-(4-fluorophenyl)-1H-imidazole],< 100 nM,100 to 1000 nM
COc1ccc(C(C)(C)c2cnc(SCc3cc(F)ccc3Cl)n2-c2ccc(F)cc2)cc1Cl [2-{[(2-chloro-5-fluorophenyl)methyl]thio}-5-{1-[3-chloro-4-(methyloxy)phenyl]-1-methylethyl}-1-(4-fluorophenyl)-1H-imidazole],< 100 nM,100 to 1000 nM

# — patent US8785488B2 (Exelixis Patent Company LLC, priority 2009, dated 2014)
